Where a name gives a salt, the structure may show the parent alone.
test system: human form of induced nitric oxide synthase; assay: Screen 3: nitrite accumulation (Griess) in cytokine-induced DLD-1 cells; type: cell-based; conditions: DLD-1 cells induced with gamma-IFN, TNF-alpha, IL-6, IL-1-beta, 5 hours incubation with compound, read-out: IC50 (inhibition of nitrite accumulation)
Description: The human colorectal carcinoma cell line, DLD-1 (obtained from the European Collection of Animal Cell Culture—cell line number 90102540) was routinely grown in RPMI 1640 supplemented with 10%(v/v) foetal bovine serum, and 2 mM L-glutanmine, at 37° C. in 5% CO2.
Nitric oxide synthase was induced in cells by addition of medium containing human recombinant gamma-IFN (1000 units/ml), TNF-alpha (200 U/ml), IL-6 (200 U/ml) and IL-1-beta (250 U/ml). After incubation for 18 hours at 37° C., the medium was removed and the cells washed with warm phosphate buffered saline. Cells were incubated for a further 5 hours at 37° C./5% CO2 in RPMI 1640 containing 100 μM L-arginine and 100 μM verapamil-HCl in the presence and absence of test compounds.
Nitrite accumulation was determined by mixing an equal volume of culture media with Griess reagent (10 mg/ml sulphanilamide, 1 mg N-(1-naphthyl)ethylenediamine in 1 ml 2.5% (v/v) phosphoric acid). Inhibition in the presence of compounds was calculated relative to the nitrite levels produced by untreated cells. IC50 values were estimated from a semi-log plot of % inhibition versus concentration of compound.

SMILES | IC50
N#Cc1ccc(Cl)cc1SC(CN)c1cccnc1 (stereo not drawn) [Example 11, 2-[[2-Amino-1-(3-pyridinyl)ethyl]thio]-4-chlorobenzonitrile] | < 100 µM
N#Cc1ccc(Cl)cc1S[C@H](CN)c1ccccc1 [Example 4, 2-[[(1S)-2-Amino-1-phenylethyl]thio]-4-chlorobenzonitrile hydrochloride] | < 100 µM
Cc1ccc(C#N)c(S[C@H](CN)c2ccccc2)n1 [Example 2, 2-[[(1S)-2-Amino-1-phenylethyl]thio]-6-methyl-3-pyridinecarbonitrile hydrochloride] | < 100 µM
NCC(Sc1cc(Cl)ccc1Cl)c1ccccc1 (stereo not drawn) [Example 3, 2-[(2,5-Dichlorophenyl)thio]-2-phenylethylamine hydrochloride] | < 100 µM
N#Cc1cc(F)c(Cl)cc1O[C@H](CN)c1ccccc1 [Example 1, 2-[[(1S)-2-Amino-1-phenylethyl]oxy]-4-chloro-5-fluorobenzonitrile (E)-butenedioate] | < 100 µM
COc1ccc(C#N)c(S[C@H](CN)c2ccccc2)c1 [Example 8, 2-[[(1S)-2-Amino-1-phenylethyl]thio]-4-methoxybenzonitrile hydrochloride] | < 100 µM
N#Cc1ccc(C(F)(F)F)nc1S[C@H](CN)c1ccccc1 [Example 7, 2-[[(1S)-2-Amino-1-phenylethyl]thio]-6-(trifluoromethyl)-3-piridinecarbonitrile] | < 100 µM
N#Cc1cc(F)c(Cl)cc1O[C@H](CN)c1ccon1 [Example 10, 2-[[(1R)-2-Amino-1-(3-isoxazolyl)ethyl]oxy]-4-chloro-5-fluorobenzonitrile ethanedioate] | < 100 µM
CNC[C@@H](Sc1cc(Cl)ccc1C#N)c1ccccc1 [Example 9, 4-Chloro-2-[[(1S)-2-(methylamino)-1-phenylethyl]thio]benzonitrile hydrochloride] | < 100 µM
CC(=N)NCC(Oc1cc(Cl)c(F)cc1C#N)c1ccccc1.Cl (stereo not drawn) [Example 5, N-[2-(5-Chloro-2-cyano-4-fluorophenoxy)-2-phenylethyl]-ethanimidamide hydrochloride] | < 100 µM

target: T1, Nitric oxide synthase (Mus musculus, UniProt P29477); assay: Screen 1: nitric oxide synthase inhibition, 3H-L-arginine to 3H-L-citrulline conversion, lysate of induced J774A-1 cells; type: biochemical, murine; conditions: enzyme from LPS/IFNg-induced J774A-1 macrophage lysate; 1 hour at room temperature; read-out: IC50 (concentration of drug substance which gives 50% enzyme inhibition in the assay)
T1 construct: endogenous in cells; host or cells: J774A-1 murine macrophage cell line, induced with LPS and IFNg; crude cell lysate
Description: The activity of compounds of formula (I), or a pharmaceutically acceptable salt thereof, may be screened for nitric oxide synthase inhibiting activity by a procedure based on that of Förstermann et al., Eur. J. Pharm., 1992, 225, 161–165. Nitric oxide synthase converts ^3H-L-arginine into ^3H-L-citrulline which can be separated by cation exchange chromatography and quantified by liquid scintillation counting.
Enzyme is prepared, after induction, from the cultured murine macrophage cell line J774A-1 (obtained from the laboratories of the Imperial Cancer Research Fund). J774A-1 cells are cultured in Dulbeccos Modified Eagles Medium (DMEM) supplemented with 10% foetal bovine serum, 4 mM L-glutamine and antibiotics (100 units/nl penicillin G, […] streptomycin & […] ainphotericin B). Cells are routinely grown in […] flasks containing 35 ml medium kept at 37° C. and in a humidified atmosphere containing 5% CO2. […]
Labelled L-citrulline is separated from labelled L-arginine using Dowex AG-50W. […] After allowing the samples to dry the L-citrulline is quantified by scintillation counting.
In a typical experiment basal activity is 300 dpm per 75 μl sample which is increased to 1900 dpm in the reagent controls. […] Compounds are tested at a range of concentrations and from the inhibitions is obtained IC50 values are calculated. […]

SMILES | IC50
N=C(N)NN [ainlinoguanidine] | 10 µM

test system: not given; assay: not given; conditions: not given

SMILES | melting point
CC(=N)NCC(Oc1cc(Cl)c(F)cc1C#N)c1ccccc1.Cl (stereo not drawn) [Example 5, N-[2-(5-Chloro-2-cyano-4-fluorophenoxy)-2-phenylethyl]-ethanimidamide hydrochloride] | 133 to 135 °C

From US7223794B2, “Arylheteroalkylamine derivatives and their use as inhibitors of nitric oxide synthase” (AstraZeneca AB, priority 2001, dated 2007)
